Experimental data: ChEMBL document CHEMBL5260828, “Amphiphilic glycoconjugates as potential anti-cancer chemotherapeutics” (Eur J Med Chem, 2018)
Values after ≈ are worked out from the molar mass of the structure shown.

Experiments:
A549 = test: Cytotoxicity against human A549 cells assessed as cell growth inhibition incubated for 48 hrs by MTT assay; type: functional, cell-based; details: A549, 48 h
NUGC-3 [1] = test: Cytotoxicity against human NUGC-3 cells assessed as cell growth inhibition by measuring lethal dose incubated for 30 mins by MTT assay; type: functional; details: NUGC-3, 0.5 h, read-out: LD50 (the source's name)
HeLa S3 = test: Cytotoxicity against human HeLa S3 cells; type: functional, cell-based; details: Homo sapiens, HeLa S3; read-out: IC50
P388 = test: Cytotoxicity against mouse P388 cells; type: functional, cell-based; details: Mus musculus, P388; read-out: IC50
B16 = test: Cytotoxicity against mouse B16 cells; type: functional, cell-based; details: Mus musculus, B16; read-out: IC50
NCI-H69 = test: Cytotoxicity against human NCI-H69 cells; type: functional, cell-based; details: Homo sapiens, NCI-H69; read-out: IC50
P388/ADM = test: Cytotoxicity against mouse P388/ADM cells; type: functional, cell-based; details: Mus musculus, P388/ADM; read-out: IC50
MIA PaCa-2 = test: Cytotoxicity against human MIA PaCa-2 cells assessed as inhibition of cell growth incubated for 72 hrs by CellTiter 96 aqueous one solution assay; type: functional, cell-based; details: MIA PaCa-2, 72 h
PK9 = test: Cytotoxicity against human PK9 cells assessed as inhibition of cell growth incubated for 72 hrs by CellTiter 96 aqueous one solution assay; type: functional, cell-based; details: PK9, 72 h
HeLa = test: Cytotoxicity against human HeLa cells assessed as inhibition of cell proliferation incubated for 72 hrs by MTT assay; type: functional, cell-based
HL-60 = test: Cytotoxicity against human HL-60 cells assessed as inhibition of cell proliferation incubated for 72 hrs by MTT assay; type: functional, cell-based; details: HL-60, 72 h
HepG2 = test: Cytotoxicity against human HepG2 cells assessed as cell growth inhibition by MTT colorimetric assay; type: functional, cell-based
Hep 3B2 = test: Cytotoxicity against human Hep3B cells assessed as cell growth inhibition by MTT colorimetric assay; type: functional, cell-based
MDA-MB-231 = test: Cytotoxicity against human MDA-MB-231 cells assessed as cell growth inhibition by MTT colorimetric assay; type: functional, cell-based
Ca9-22 = test: Cytotoxicity against human Ca9-22 cells assessed as cell growth inhibition by MTT colorimetric assay; type: functional, cell-based
AGS = test: Antiproliferative activity against human AGS cells assessed as inhibition of cell growth incubated for 48 hrs by MTT assay; type: functional, cell-based
SF-268 = test: Antiproliferative activity against human SF-268 cells assessed as inhibition of cell growth incubated for 48 hrs by MTT assay; type: functional, cell-based
HCT-116 [2] = test: Antiproliferative activity against human HCT-116 cells assessed as inhibition of cell growth incubated for 48 hrs by MTT assay; type: functional, cell-based
NCI-H460 = test: Antiproliferative activity against human NCI-H460 cells assessed as inhibition of cell growth incubated for 48 hrs by MTT assay; type: functional, cell-based
MCF7 = test: Antiproliferative activity against human MCF7 cells assessed as inhibition of cell growth incubated for 48 hrs by MTT assay; type: functional, cell-based
Lung NSCLC-N6 cell-line = test: Cytotoxicity against human Lung NSCLC-N6 cell-line by MTT colorimetric assay; type: functional, cell-based
NUGC-3 [3] = test: Cytotoxicity against human NUGC-3 cells assessed as cell growth inhibition incubated for 30 mins by MTT assay; type: functional, cell-based; details: NUGC-3, 0.5 h
HCT-116 [4] = test: Cytotoxicity against human HCT-116 cells assessed as cell growth inhibition incubated for 72 hrs by celltiter 96 aqueous cell proliferation assay; type: functional, cell-based; details: HCT-116, 72 h

In the case of `CCCCCCCCCCCCCCCC(=O)OCC(CO[C@H]1O[C@H](CS(=O)(=O)[O-])[C@@H](O)[C@H](O)[C@H]1O)OC(=O)CCCCCCCCCCCCCCC.[Na+]` (stereo partly specified), the IC50 (A549) is reported as 83.5 µg/mL.

`CCCCCCCCCCCCCCCCCC(=O)OCC(CO[C@H]1O[C@H](CS(=O)(=O)[O-])[C@@H](O)[C@H](O)[C@H]1O)OC(=O)CCCCCCCCCCCCCCCCC.[Na+]` (stereo partly specified) was tested, and the IC50 (A549) was 75.5 µg/mL.

In the case of `CCCCCCCCCCCCCCCCCC(=O)OCC(O)CO[C@@H]1O[C@H](CS(=O)(=O)O)[C@@H](O)[C@H](O)[C@H]1O` (stereo partly specified), the CC50 (NUGC-3 [1]) is reported as 135 µM.

Molecule `CCCCCCCCCCCCCCCCCC(=O)OCC(O)CO[C@H]1O[C@H](CS(=O)(=O)O)[C@@H](O)[C@H](O)[C@H]1O` (stereo partly specified) has a CC50 (NUGC-3 [1]) of 150 µM.

With `C/C=C(\C)[C@H](O[C@@H]1O[C@H](CO)[C@@H](O)[C@H](O)[C@H]1O)[C@H](C)/C=C(C)/C=C/C/C(C)=C/Cc1nc(OC)c(OC)c(O)c1C` the IC50 (HeLa S3) was 0.11 µg/mL (≈ 0.19 µM), the IC50 (P388) was 0.36 µg/mL (≈ 0.623 µM) and the IC50 (B16) was 0.0074 µg/mL (≈ 0.0128 µM). For the same molecule, the IC50 (NCI-H69) was 0.019 µg/mL (≈ 0.0329 µM) and the IC50 (P388/ADM) was 0.25 µg/mL (≈ 0.433 µM).

With `CCCCCCCCCCCCc1cn(CC[C@H]2NC[C@@H](O)[C@H]2O)nn1` the IC50 (MIA PaCa-2) was 19 µM and the IC50 (PK9) was 19 µM.

With `CCCCCCCCCCCCc1cn(C[C@@H]2N[C@@H](C)[C@@H](O)[C@H]2O)nn1` the IC50 (MIA PaCa-2) was 19 µM and the IC50 (PK9) was 19 µM.

`C/C=C/C/C(C)=C\[C@H]1C/C=C/C=C/C[C@H](C)/C=C(\C)[C@@H](OC)C/C=C/[C@@H](O)CC(=O)O1` was tested, and the IC50 (HeLa) was 0.049 µM and the IC50 (HL-60) was 0.03 µM.

With `COc1nc(C/C=C(\C)C/C=C/C(C)=C/[C@@H](C)[C@@H](O[C@@H]2O[C@H](CO)[C@@H](O)[C@H](O)[C@H]2O)/C(C)=C/CO)c(C)c(O)c1OC` the IC50 (HeLa S3) was 0.76 µg/mL (≈ 1.28 µM), the IC50 (P388) was 1.6 µg/mL (≈ 2.69 µM) and the IC50 (B16) was 0.21 µg/mL (≈ 0.354 µM). The IC50 (NCI-H69) was 0.066 µg/mL (≈ 0.111 µM) and the IC50 (P388/ADM) was 0.78 µg/mL (≈ 1.31 µM).

With `CCCCCCCCCCCCOC[C@@H](COO)O[C@@H]1OC[C@@H](O)[C@@H](O)[C@@H]1O` the IC50 (HepG2) was 9.2 µg/mL (≈ 22.5 µM), the IC50 (Hep 3B2) was 9.2 µg/mL (≈ 22.5 µM) and the IC50 (MDA-MB-231) was 9.2 µg/mL (≈ 22.5 µM). The IC50 (Ca9-22) was 9.2 µg/mL (≈ 22.5 µM).

`CCCCCCCCCCCCc1cn(C[C@H]2NC[C@H](O)[C@@H]2O)nn1` was tested, and the IC50 (MIA PaCa-2) was 19 µM and the IC50 (PK9) was 19 µM.

With `CCCCCCCCCCCCCCCCCC(=O)OC[C@H](COC1O[C@H](CS(=O)(=O)[O-])[C@@H](O)[C@H](O)[C@H]1O)OCC(=O)CCCCCCCCCCCCCCC.[Na+]` (stereo partly specified) the CC50 (NUGC-3 [1]) was 80 µg/mL.

For `CCCCCCCCCCCCCCOC[C@@H](COO)O[C@@H]1OC[C@@H](O)[C@@H](O)[C@@H]1O`, the IC50 (HepG2) was 9.2 µg/mL (≈ 21.1 µM), the IC50 (Hep 3B2) was 9.2 µg/mL (≈ 21.1 µM) and the IC50 (MDA-MB-231) was 9.2 µg/mL (≈ 21.1 µM). The IC50 (Ca9-22) was 9.2 µg/mL (≈ 21.1 µM).

`CC/C=C\C/C=C\C/C=C\CCCCCCCC(=O)OCC(CO[C@@H]1O[C@H](CO)[C@H](O)[C@H](O)[C@H]1O)OC(=O)CCCCCCCCCCCCCCCCC` (stereo partly specified) was tested, and the IC50 (AGS) was 0.039 µg/mL (≈ 0.0499 µM), the IC50 (SF-268) was 0.039 µg/mL (≈ 0.0499 µM) and the IC50 (HCT-116 [2]) was 0.039 µg/mL (≈ 0.0499 µM). For the same molecule, the IC50 (NCI-H460) was 0.039 µg/mL (≈ 0.0499 µM) and the IC50 (MCF7) was 0.039 µg/mL (≈ 0.0499 µM).

`CO[C@@H]1/C=C(\C)C[C@H](/C=C/C#C[C@H]2C[C@@H]2Cl)OC(=O)[C@@H](C)[C@]2(O)C[C@H](O[C@@H]3O[C@@H](C)[C@H](O[C@@H]4O[C@@H](C)[C@H](O)[C@@](C)(O)[C@H]4OC)[C@@](C)(O)[C@H]3OC)[C@@H](C)[C@@H](O2)[C@@H]1C` showed an IC50 (Lung NSCLC-N6 cell-line) of 15.1 µg/mL (≈ 18.5 µM).

Molecule `C/C=C/C/C(C)=C\[C@H]1C/C=C/C=C/C[C@H](C)/C=C(\C)[C@@H](OC)CCC[C@@H](O)CC(=O)O1` has an IC50 (HeLa) of 0.046 µM and an IC50 (HL-60) of 0.024 µM.

Work on `CCCCCCCCCCCCCCCCCC(=O)OCC(O)CO[C@H]1O[C@H](CO)[C@@H](O)[C@H](O)[C@H]1O` (stereo partly specified) yielded an IC50 (NUGC-3 [3]) of 110 µM.

In the case of `CO[C@@H]1/C=C(\C)C[C@H](/C=C/C#C[C@H]2C[C@@H]2Cl)OC(=O)[C@@H](C)[C@]2(O)C[C@H](O[C@@H]3O[C@@H](C)[C@H](O)[C@@](C)(O)[C@H]3O[C@@H]3O[C@@H](C)[C@H](O)[C@@](C)(O)[C@H]3OC)[C@@H](C)[C@@H](O2)[C@@H]1C`, the IC50 (HCT-116 [4]) is reported as 10.2 µM.
